In US20110076293A1, “TRIPTOLIDE DERIVATIVES FOR MODULATION OF APOPTOSIS AND IMMUNOSUPPRESSION” (priority 2002, published 2011):
pIC50: −log10 of the molar value.

Columns and labels:
[1] = tested on: Jurkat human T lymphocyte cell line; assay: Apoptosis assay (Annexin V) of compounds incubated with human serum; details: for apoptotic activity (in words): after 48 hr. incubation in human serum
Protocol: Compounds of formula I, as shown in Table 1 above and in the Examples, were assayed for their capacity to induce apoptosis in cells from the Jurkat human T lymphocyte cell line, after incubation with pooled human serum for varying periods of time at 37° C. (see Example 19). An ester prodrug, triptolide-14-succinate, designated PG490-88, was included for comparison. The extent of conversion to triptolide after such incubation was also independently determined by HPLC analysis.
The ED50 values (column 3) are calculated directly from the data in each experiment, and the % conversion values (column 4) are calculated as percent of the ED50 value produced by triptolide, designated PG490, incubated in the same plasma (i.e. in the same experiment).
A. Incubation of compounds with human serum. Pooled human serum was stored in aliquots at −80° C. Test compounds were added at 20 mM to thawed human serum in 1.5 ml microfuge tubes and incubated at 37° C. in a water bath for varying periods of time. The test samples were placed on ice until dilution for the bioassay. Controls consisted of the compounds incubated in complete tissue culture medium (RPMI 1640 medium plus 5% heat-inactivated fetal calf serum, 1% HEPES, 1% pen/strep, 1% glutamine) rather than human serum.
B. Apoptosis assay of compounds incubated with human serum. Test samples were diluted to 1 mM in complete tissue culture medium. Aliquots were placed in microculture plates and serial dilutions were prepared so that the final concentration would encompass the range of 1 to 10,000 nM with half-log increments. Cells from an exponentially expanding culture of the Jurkat human T lymphocyte cell line (#TIB-152 obtained from American Type Culture Collection, Manassas, Va.) were harvested, washed once by centrifugation and dilution in complete tissue culture medium, and diluted to a concentration of 1×10^6 cells/ml. A volume of 100 μl of Jurkat cells (1×10^5 cells) was added to wells containing 100 μl of the diluted compounds, and the plates were incubated at 37° C. in a 5% CO2 incubator. After 24 hours, the plates were centrifuged to pellet the cells, and the cells were washed twice with 2% heat-inactivated fetal calf serum in PBS. To each well, 500 ul of binding buffer was added according to the Annexin V assay procedure (BioVision, Inc., Mountain View, Calif.). Next, 5 μl of the fluorescein isothiocyanate (FITC) conjugate of Annexin V (BioVision, Inc.) was added to each well, followed by 5 minutes of incubation in the dark. In some assays, propidium iodide (BioVision, Inc.) was added at this stage to check for necrotic cells. The contents of the wells were individually transferred into test tubes, and apoptosis was analyzed using a FACSCalibur flow cytometer (BD Immunocytometry Systems, San Jose, Calif.). Cells positive for Annexin V binding were considered to be apoptotic, and the data were calculated as percent apoptotic cells.
(§1) C. Comparison of bioactivities after incubation of compounds in human serum. The data were plotted as the concentration of compound incubated in serum versus percent apoptotic cells. The concentration of compound inducing 50% apoptosis (ED50) was calculated from these dose response curves. […] This percentage conversion was used to compare the bioactivity of various compounds after incubation in human serum.

[2] = tested on: IL-2 production in Jurkat human T lymphocyte cells; assay: IL-2 production assay for activity of compounds incubated with human serum; details: for bioactivity in IL-2 inhibition assays (in words): FIGS. 4-5; for IL-2 pg/mL at given concentration (nM): Table 8, Jurkat cells
Protocol: Several compounds of formula I were analyzed for their capacity to inhibit IL-2 production in Jurkat human T lymphocyte cells, after incubation with pooled human serum for 48 hours at 37° C. (see Example 20). An ester prodrug, triptolide-14-succinate, designated PG490-88, was included for comparison.
The IC50 values (column 1) are calculated directly from the data in each experiment. The % conversion values (column 2) are calculated as the percent of the IC50 value produced by triptolide, designated PG490, incubated in the same plasma (i.e. in the same experiment).
A. IL-2 production assay for activity of compounds incubated with human serum. Test samples were diluted to 1 mM in complete tissue culture medium. […] Cells from an exponentially expanding culture of the Jurkat human T lymphocyte cell line (#TIB-152 obtained from American Type Culture Collection, Manassas, Va.) were harvested, washed once by centrifugation and dilution in complete tissue culture medium, and diluted to a concentration of 2×10^6 cells/ml. A volume of 50 μl of Jurkat cells (1×10^5 cells) was added to wells containing 100 μl of the diluted compounds, 50 μl of PMA (10 ng/ml) was added to each well, and the plates were incubated at 37° C. in a 5% CO2 incubator. After 24 hours, the plates were centrifuged to pellet the cells, 150 μl of supernatant was removed from each well, and the samples were stored at −20° C. The stored supernatants were analyzed for human IL-2 concentration using the Luminex 100 (Luminex Corporation, Austin, Tex.), Luminex microspheres coupled with anti-IL-2 capture antibody, and fluorochrome-coupled anti-IL-2 detection antibody. The data were expressed as ng/ml of IL-2.
as §1, with “B.” for “C.”, “IL-2 concentration.” for “percent apoptotic cells.”, “inducing a” for “inducing”, “decrease in the IL-2 concentration (IC50)” for “apoptosis (ED50)”

[3] = Table 4, serum, 48 hr, 10000 nM

Compound | % apoptotic cells at given concentration (nM) ([1]; Table 4, medium, 10000 nM) [%] | % apoptotic cells at given concentration (nM) ([1]; Table 4, serum, 0 hr, 10000 nM) [%] | % apoptotic cells at given concentration (nM) ([1]; Table 4, serum, 48 hr, 0.03 nM) [%] | % apoptotic cells at given concentration (nM) ([1]; Table 4, serum, 48 hr, 0.1 nM) [%] | % apoptotic cells at given concentration (nM) ([1]; Table 4, serum, 48 hr, 0.3 nM) [%] | % apoptotic cells at given concentration (nM) ([1]; Table 4, serum, 48 hr, 1 nM) [%] | % apoptotic cells at given concentration (nM) ([1]; Table 4, serum, 48 hr, 3 nM) [%] | % apoptotic cells at given concentration (nM) ([1]; Table 4, serum, 48 hr, 10 nM) [%] | % apoptotic cells at given concentration (nM) ([1]; Table 4, serum, 48 hr, 30 nM) [%] | % apoptotic cells at given concentration (nM) ([1]; Table 4, serum, 48 hr, 100 nM) [%] | % apoptotic cells at given concentration (nM) ([1]; Table 4, serum, 48 hr, 300 nM) [%] | % apoptotic cells at given concentration (nM) ([1]; Table 4, serum, 48 hr, 1000 nM) [%] | % apoptotic cells at given concentration (nM) ([1]; Table 4, serum, 48 hr, 3000 nM) [%] | % apoptotic cells at given concentration (nM) [1, 3] [%] | bioactivity in IL-2 inhibition assays (in words) [2] | IL-2 pg/mL at given concentration (nM) ([2]; 0.0001 nM) [pg/mL] | IL-2 pg/mL at given concentration (nM) ([2]; 0.001 nM) [pg/mL] | IL-2 pg/mL at given concentration (nM) ([2]; 0.01 nM) [pg/mL] | IL-2 pg/mL at given concentration (nM) ([2]; 0.1 nM) [pg/mL] | IL-2 pg/mL at given concentration (nM) ([2]; 1 nM) [pg/mL] | also measured
CC(C)[C@]12O[C@H]1[C@@H]1O[C@]13[C@]1(O[C@H]1C[C@H]1C4=C(CC[C@@]13C)C(=O)OC4)[C@@H]2OC(=O)Nc1ccccc1 [PG671, Triptolide 14-Phenyl Carbamate] | 13.7 | 10.2 | 42.5 | 43.3 | 43.9 | 44.2 | 43.2 | 42.4 | 44.7 | 43.5 | 43.1 | 43.0 | 43.3 | 15.4 | some level of bioactivity | 96.4 | 102.7 | 99.7 | 114.7 | 106.1 | conversion in human serum (in words) [1]: less readily converted; IL-2 pg/mL at given concentration (nM) ([2]; 10 nM): 90.7 pg/mL; IL-2 pg/mL at given concentration (nM) ([2]; 100 nM): 77.9 pg/mL; IL-2 pg/mL at given concentration (nM) ([2]; 1000 nM): 48.7 pg/mL; IL-2 pg/mL at given concentration (nM) ([2]; 10000 nM): 8.8 pg/mL
CC(C)[C@]12O[C@H]1[C@@H]1O[C@]13[C@]1(O[C@H]1C[C@H]1C4=C(CC[C@@]13C)C(=O)OC4)[C@@H]2OC(=O)N1CCN(C)CC1 [PG672, N-methylpiperazinecarbonyl (carbamate)] | 48.6 | 47.6 | 42.7 | 45.2 | 45.4 | 45.9 | 45.3 | 46.0 | 46.8 | 46.6 | 42.3 | 43.7 | 44.9 | 63.2 | some level of bioactivity | 103.3 | 90.8 | 99.1 | 117.1 | 91.4 | conversion in human serum (in words) [1]: less readily converted; apoptotic activity (in words) [1]: activity at high concentrations; IL-2 pg/mL at given concentration (nM) ([2]; 10 nM): 99.1 pg/mL; IL-2 pg/mL at given concentration (nM) ([2]; 100 nM): 64.6 pg/mL; IL-2 pg/mL at given concentration (nM) ([2]; 1000 nM): 26.8 pg/mL; IL-2 pg/mL at given concentration (nM) ([2]; 10000 nM): 8.7 pg/mL
CC(C)[C@]12O[C@H]1[C@@H]1O[C@]13[C@]1(O[C@H]1C[C@H]1C4=C(CC[C@@]13C)C(=O)OC4)[C@@H]2OC(=O)CCC(N)C(=O)O (stereo partly shown) [PG661, 14-isoglutamyl ester, reference compound] | 7.3 | 5.2 | 38.8 | 38.2 | 39.0 | 39.2 | 39.1 | 39.2 | 40.3 | 38.6 | 36.3 | 28.7 | 28.2 | 5.2 | little or no activity | 82.0 | 102.1 | 123.6 | 120.7 | 98.2 | % apoptotic cells at given concentration (nM) ([1]; Table 3, human serum, 0 hr, 10000 nM): 7.9%; % apoptotic cells at given concentration (nM) ([1]; Table 3, human serum, 48 hr, 1 nM): 11.3%; % apoptotic cells at given concentration (nM) ([1]; Table 3, human serum, 48 hr, 3 nM): 10.4%; % apoptotic cells at given concentration (nM) ([1]; Table 3, human serum, 48 hr, 10 nM): 10.3%; % apoptotic cells at given concentration (nM) ([1]; Table 3, human serum, 48 hr, 30 nM): 10.5%; % apoptotic cells at given concentration (nM) ([1]; Table 3, human serum, 48 hr, 100 nM): 10.3%; % apoptotic cells at given concentration (nM) ([1]; Table 3, human serum, 48 hr, 300 nM): 10.5%; % apoptotic cells at given concentration (nM) ([1]; Table 3, human serum, 48 hr, 1000 nM): 10.2%; % apoptotic cells at given concentration (nM) ([1]; Table 3, human serum, 48 hr, 3000 nM): 9.7%; % apoptotic cells at given concentration (nM) ([1]; Table 3, human serum, 48 hr, 10000 nM): 9.4%; % apoptotic cells at given concentration (nM) ([1]; Table 3, medium only, 10000 nM): 13.6%; apoptotic activity (in words) [1]: essentially no activity; IL-2 pg/mL at given concentration (nM) ([2]; 10 nM): 110.3 pg/mL; IL-2 pg/mL at given concentration (nM) ([2]; 100 nM): 103.6 pg/mL; IL-2 pg/mL at given concentration (nM) ([2]; 1000 nM): 74.4 pg/mL; IL-2 pg/mL at given concentration (nM) ([2]; 10000 nM): 68.7 pg/mL
CC(C)[C@]12O[C@H]1[C@@H]1O[C@]13[C@]1(O[C@H]1C[C@H]1C4=C(CC[C@@]13C)C(=O)OC4)[C@@H]2OC(=O)OC(C)(C)C [PG695, Triptolide 14-tert-Butyl Carbonate] |  |  |  |  |  |  |  |  |  |  |  |  |  |  |  |  |  |  |  |  | EC50 ([1]; Homo sapiens, Jurkat, 48 h, read-out: ED50 (nM) in apoptosis assay after incubation with serum, incubation time in human serum 48 hours, 37° C.): 59 nM; Conversion, as relative ED50 compared to triptolide (%) ([1]; incubation time in human serum 48 hours): 100%; pIC50 ([2]; Homo sapiens, Jurkat, 48 h, IL-2 production in Jurkat cells after incubation with pooled human serum for 48 hours at 37° C.): 7.00; Conversion (%) ([2]; percent of the IC50 value produced by triptolide (PG490) in the same experiment, human serum 48 hours): 2%
